The values below come from PMC3418602 (2009).

Holding throughout (assay): TR-FRET peptide phosphorylation kinase assay
Holding throughout (type): biochemical
In general terms: TR-FRET usually uses a lanthanide donor and a delayed reading to cut background.

The target in experiment [1] is JAK2 (Homo sapiens, UniProt O60674).
The target of experiment [2] is JAK3 (Homo sapiens, UniProt P52333).
Experiment [3] has as its target JAK1 (Homo sapiens, UniProt P23458).

pIC50: −log10 of the molar value.

JAK3, sequence (P52333 781-1124 limits assumed): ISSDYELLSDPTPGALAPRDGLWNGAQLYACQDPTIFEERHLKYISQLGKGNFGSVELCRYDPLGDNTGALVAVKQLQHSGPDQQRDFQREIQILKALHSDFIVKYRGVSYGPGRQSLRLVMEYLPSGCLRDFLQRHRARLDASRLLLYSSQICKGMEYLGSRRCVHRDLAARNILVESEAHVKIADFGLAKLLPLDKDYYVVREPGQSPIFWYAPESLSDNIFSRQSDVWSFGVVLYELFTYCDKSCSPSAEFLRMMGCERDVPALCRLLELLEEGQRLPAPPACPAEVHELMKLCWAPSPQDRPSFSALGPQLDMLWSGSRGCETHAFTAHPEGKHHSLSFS
JAK1, sequence (P23458 850-1154 limits assumed): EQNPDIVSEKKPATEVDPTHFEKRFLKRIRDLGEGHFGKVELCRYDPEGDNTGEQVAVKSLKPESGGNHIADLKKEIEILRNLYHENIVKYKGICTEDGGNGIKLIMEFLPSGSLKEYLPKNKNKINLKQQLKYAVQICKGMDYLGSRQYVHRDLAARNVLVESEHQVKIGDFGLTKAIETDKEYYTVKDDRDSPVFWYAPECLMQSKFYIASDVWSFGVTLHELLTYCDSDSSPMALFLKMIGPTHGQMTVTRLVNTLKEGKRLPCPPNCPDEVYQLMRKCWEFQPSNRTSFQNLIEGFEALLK
JAK2, sequence (O60674 840-1132 limits assumed): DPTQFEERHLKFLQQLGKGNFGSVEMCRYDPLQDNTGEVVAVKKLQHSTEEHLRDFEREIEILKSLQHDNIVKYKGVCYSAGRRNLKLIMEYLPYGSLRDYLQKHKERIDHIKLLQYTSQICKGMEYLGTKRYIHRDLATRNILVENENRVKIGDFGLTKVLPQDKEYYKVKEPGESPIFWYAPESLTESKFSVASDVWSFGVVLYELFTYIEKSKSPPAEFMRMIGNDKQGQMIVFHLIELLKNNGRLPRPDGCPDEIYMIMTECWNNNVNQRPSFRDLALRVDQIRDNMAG

Turning to `N#C/C(=C\c1ccc(O)c(O)c1)C(=O)NCc1ccccc1` [AG490], the pIC50 was 4.95 in experiment [1], 4.81 in experiment [2] and 4.99 in experiment [3].

For orientation: pIC50 means the negative decadic logarithm of the IC50, by convention in mol/L. A high value points to a low IC50.
